Tested on: 786-0 complex spheroids with HUVEC/MSC, growth % test/control
Assay: Anticancer human tumor 786-0 cell line growth inhibition [AhR];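 further: compound exposure lasted seven days before the read-out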
Settings: for IC50: curve of first compound; for viability, T/C: stronger effect = lower value
Summary of the method: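 Spheroids combined tumor cells with HUVEC endothelial cells and human MSCs as stroma. AhR antagonists were paired with standard or investigational drugs, each dosed in half-log steps down from near clinical Cmax, or from 10 microM where Cmax was unknown.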

[1] = second compound 0.1 µM, first compound 0.0316 µM
[2] = second compound 0.1 µM, first compound 0.1 µM
[3] = second compound 0.1 µM, first compound 0.316 µM
[4] = second compound 0.1 µM, first compound 1 µM
[5] = second compound 0.1 µM, first compound 3.16 µM
[6] = second compound 0.1 µM, first compound 10 µM
[7] = second compound 0.316 µM, first compound 0.0316 µM
[8] = second compound 0.316 µM, first compound 0.1 µM
[9] = second compound 0.316 µM, first compound 0.316 µM
[10] = second compound 0.316 µM, first compound 1 µM
[11] = second compound 0.316 µM, first compound 3.16 µM
[12] = second compound 0.316 µM, first compound 10 µM
[13] = second compound 1 µM, first compound 0.0316 µM
[14] = second compound 1 µM, first compound 0.1 µM
[15] = second compound 1 µM, first compound 0.316 µM
[16] = second compound 1 µM, first compound 1 µM
[17] = second compound 1 µM, first compound 3.16 µM
[18] = second compound 1 µM, first compound 10 µM
[19] = second compound 3.16 µM, first compound 0.0316 µM
[20] = second compound 3.16 µM, first compound 0.1 µM
[21] = second compound 3.16 µM, first compound 0.316 µM
[22] = second compound 3.16 µM, first compound 1 µM
[23] = second compound 3.16 µM, first compound 3.16 µM
[24] = second compound 3.16 µM, first compound 10 µM
[25] = second compound 10 µM, first compound 0.0316 µM
[26] = second compound 10 µM, first compound 0.1 µM
[27] = second compound 10 µM, first compound 0.316 µM
[28] = second compound 10 µM, first compound 1 µM
[29] = second compound 10 µM, first compound 3.16 µM
[30] = second compound 10 µM, first compound 10 µM

SMILES | IC50 (second compound 0.1 µM) | IC50 (second compound 0.316 µM) | IC50 (second compound 1 µM) | IC50 (second compound 3.16 µM) | IC50 (second compound 10 µM) | viability, T/C [1] | viability, T/C [2] | viability, T/C [3] | viability, T/C [4] | viability, T/C [5] | viability, T/C [6] | viability, T/C [7] | viability, T/C [8] | viability, T/C [9] | viability, T/C [10] | viability, T/C [11] | viability, T/C [12] | viability, T/C [13] | viability, T/C [14] | viability, T/C [15] | further results
CC1(C)CCC(CN2CCN(c3ccc(C(=O)NS(=O)(=O)c4ccc(NCC5CCOCC5)c([N+](=O)[O-])c4)c(Oc4cnc5[nH]ccc5c4)c3)CC2)=C(c2ccc(Cl)cc2)C1 + CC(CO)NC(=O)c1cc(-c2ccc(Cl)cc2)nn(-c2cnn(C)c2)c1=O | > 10000 nM | > 10000 nM | > 10000 nM | > 10000 nM | > 10000 nM | 109% | 101% | 106% | 99.9% | 90.7% | 77.7% | 105% | 115% | 101% | 98.4% | 91.3% | 81.3% | 105% | 103% | 106% | viability, T/C [16]: 97.9%; viability, T/C [17]: 104%; viability, T/C [18]: 80.8%; viability, T/C [19]: 116%; viability, T/C [20]: 111%; viability, T/C [21]: 104%; viability, T/C [22]: 96.4%; viability, T/C [23]: 82.9%; viability, T/C [24]: 82.5%; viability, T/C [25]: 114%; viability, T/C [26]: 135%; viability, T/C [27]: 109%; viability, T/C [28]: 122%; viability, T/C [29]: 98.4%; viability, T/C [30]: 86.4%
CC1COCCN1c1cc(C2(S(C)(=N)=O)CC2)nc(-c2ccnc3[nH]ccc23)n1 (stereo not given) + CC(CO)NC(=O)c1cc(-c2ccc(Cl)cc2)nn(-c2cnn(C)c2)c1=O | 3020 nM | 2780 nM | 2640 nM | 2570 nM | 2090 nM | 99.7% | 99.5% | 98.1% | 99.4% | 48% | 15.7% | 101% | 110% | 96.2% | 101% | 43.6% | 17.3% | 108% | 102% | 113% | viability, T/C [16]: 97.4%; viability, T/C [17]: 41.3%; viability, T/C [18]: 13.7%; viability, T/C [19]: 108%; viability, T/C [20]: 101%; viability, T/C [21]: 118%; viability, T/C [22]: 107%; viability, T/C [23]: 37.5%; viability, T/C [24]: 10.8%; viability, T/C [25]: 110%; viability, T/C [26]: 118%; viability, T/C [27]: 115%; viability, T/C [28]: 93.6%; viability, T/C [29]: 25.5%; viability, T/C [30]: 8.6%

Source: PubChem BioAssay AID1919003 (Molecular Pharmacology Branch, DTP, NCI, 2023)
